Experimental data from patent publication US20150094474A1, “AGRICULTURAL CHEMICALS” (Redx Pharma Ltd., priority 2012, published 2015).

Legend:
Format in all cases: in vivo
[1] = test system: barley; test: Herbicidal bioassay, barley (% necrosis)
Outline: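 Scoring of % necrosis followed EPPO guideline PP1/135 at specified growth intervals, five replicates per species and treatment. Plants at the 2-4 true leaf stage received Potter-tower sprays of DMSO-diluted compounds across six levels from 0.0001% to 0.05%, with water and DMSO controls.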

[2] = test system: Lolium perenne; test: Herbicidal bioassay, Lolium perenne / rye grass (% necrosis)
Procedure: (§1) A laboratory bioassay was conducted to screen ten compounds (Fluazifop (25); Ethyl fluazifop (62); five fluazifop analogues: 27, 28, 63, 64 and 65; mesofulfuron (6); and two mesosulfuron analogues: 8 and 61. for activity against Lolium perenne, barley, peas and Chinese cabbage. Compounds were diluted in DMSO. Controls were performed using both DMSO and water.
(§2) Plants were obtained as seeds and were grown to the 2-4 true leaf stage. Plants were grown individually in seed trays. Each plant (in an approximately 3 cm diameter plug) was then detached from the tray for spraying. Environmental conditions were closely monitored and recorded and were within the optimal range of the target species.
(§3) The compounds were screened at a range of six concentrations, eg. 0.05%, 0.01%, 0.005%, 0.001%, 0.0005% and 0.0001%. Treatments will be applied directly onto the plants, using a potter tower.
(§4) One plant of each type will be sprayed using a potter tower. The 4 different types of weeds will be placed in a 10 cm diameter area underneath the potter sprayer and sprayed simultaneously. The growth of the plants and any Phytotoxicity effects will then be assessed at specified growth intervals, according to EPPO guideline PP1/135. Five replicates will be performed for each treatment, for each species.

[3] = test system: Chinese cabbage; test: Herbicidal bioassay, Chinese cabbage (% necrosis)
Procedure: as §1, §2, §3, §4

CCOC(=O)C(C)Oc1ccc(Oc2ccc(C(F)(F)F)cn2)cc1 (stereo not drawn) [Fluazifop Ethyl ester (62)]
A (over 80% necrosis): Sum of % necrosis in barley ([1]; Dose 0.0001, Day 21) | Sum of % necrosis in barley ([1]; Dose 0.0005, Day 21) | Sum of % necrosis in Rye grass ([2]; Dose 0.0001, Day 14) | Sum of % necrosis in Rye grass ([2]; Dose 0.0001, Day 21) | Sum of % necrosis in Chinese cabbage ([3]; Dose 0.000005, Day 10) | Sum of % necrosis in Chinese cabbage ([3]; Dose 0.000005, Day 14) | Sum of % necrosis in Chinese cabbage ([3]; Dose 0.000005, Day 21) | Sum of % necrosis in Chinese cabbage ([3]; Dose 0.00001, Day 14) | Sum of % necrosis in Chinese cabbage ([3]; Dose 0.00001, Day 21) | Sum of % necrosis in Chinese cabbage ([3]; Dose 0.00005, Day 10) | Sum of % necrosis in Chinese cabbage ([3]; Dose 0.00005, Day 14) | Sum of % necrosis in Chinese cabbage ([3]; Dose 0.00005, Day 21) | Sum of % necrosis in Chinese cabbage ([3]; Dose 0.0001, Day 10) | Sum of % necrosis in Chinese cabbage ([3]; Dose 0.0001, Day 14) | Sum of % necrosis in Chinese cabbage ([3]; Dose 0.0001, Day 21) | Sum of % necrosis in Chinese cabbage ([3]; Dose 0.0005, Day 7) | Sum of % necrosis in Chinese cabbage ([3]; Dose 0.0005, Day 10) | Sum of % necrosis in Chinese cabbage ([3]; Dose 0.0005, Day 14) | Sum of % necrosis in Chinese cabbage ([3]; Dose 0.0005, Day 21)
C (less than 50% necrosis): Sum of % necrosis in barley ([1]; Dose 0.000001, Day 0) | Sum of % necrosis in barley ([1]; Dose 0.000001, Day 1) | Sum of % necrosis in barley ([1]; Dose 0.000001, Day 3) | Sum of % necrosis in barley ([1]; Dose 0.000001, Day 7) | Sum of % necrosis in barley ([1]; Dose 0.000001, Day 10) | Sum of % necrosis in barley ([1]; Dose 0.000001, Day 14) | Sum of % necrosis in barley ([1]; Dose 0.000001, Day 21) | Sum of % necrosis in barley ([1]; Dose 0.000005, Day 0) | Sum of % necrosis in barley ([1]; Dose 0.000005, Day 1) | Sum of % necrosis in barley ([1]; Dose 0.000005, Day 3) | Sum of % necrosis in barley ([1]; Dose 0.000005, Day 7) | Sum of % necrosis in barley ([1]; Dose 0.000005, Day 10) | Sum of % necrosis in barley ([1]; Dose 0.000005, Day 14) | Sum of % necrosis in barley ([1]; Dose 0.000005, Day 21) | Sum of % necrosis in barley ([1]; Dose 0.00001, Day 0) | Sum of % necrosis in barley ([1]; Dose 0.00001, Day 1) | Sum of % necrosis in barley ([1]; Dose 0.00001, Day 3) | Sum of % necrosis in barley ([1]; Dose 0.00001, Day 7) | Sum of % necrosis in barley ([1]; Dose 0.00001, Day 10) | Sum of % necrosis in barley ([1]; Dose 0.00001, Day 14) | Sum of % necrosis in barley ([1]; Dose 0.00005, Day 0) | Sum of % necrosis in barley ([1]; Dose 0.00005, Day 1) | Sum of % necrosis in barley ([1]; Dose 0.00005, Day 3) | Sum of % necrosis in barley ([1]; Dose 0.00005, Day 7) | Sum of % necrosis in barley ([1]; Dose 0.00005, Day 10) | Sum of % necrosis in barley ([1]; Dose 0.00005, Day 14) | Sum of % necrosis in barley ([1]; Dose 0.0001, Day 0) | Sum of % necrosis in barley ([1]; Dose 0.0001, Day 1) | Sum of % necrosis in barley ([1]; Dose 0.0001, Day 3) | Sum of % necrosis in barley ([1]; Dose 0.0001, Day 7) | Sum of % necrosis in barley ([1]; Dose 0.0001, Day 10) | Sum of % necrosis in barley ([1]; Dose 0.0001, Day 14) | Sum of % necrosis in barley ([1]; Dose 0.0005, Day 0) | Sum of % necrosis in barley ([1]; Dose 0.0005, Day 1) | Sum of % necrosis in barley ([1]; Dose 0.0005, Day 3) | Sum of % necrosis in barley ([1]; Dose 0.0005, Day 7) | Sum of % necrosis in barley ([1]; Dose 0.0005, Day 10) | Sum of % necrosis in barley ([1]; Dose 0.0005, Day 14) | Sum of % necrosis in Rye grass ([2]; Dose 0.000001, Day 0) | Sum of % necrosis in Rye grass ([2]; Dose 0.000001, Day 1) | Sum of % necrosis in Rye grass ([2]; Dose 0.000001, Day 3) | Sum of % necrosis in Rye grass ([2]; Dose 0.000001, Day 7) | Sum of % necrosis in Rye grass ([2]; Dose 0.000001, Day 10) | Sum of % necrosis in Rye grass ([2]; Dose 0.000001, Day 14) | Sum of % necrosis in Rye grass ([2]; Dose 0.000001, Day 21) | Sum of % necrosis in Rye grass ([2]; Dose 0.000005, Day 0) | Sum of % necrosis in Rye grass ([2]; Dose 0.000005, Day 1) | Sum of % necrosis in Rye grass ([2]; Dose 0.000005, Day 3) | Sum of % necrosis in Rye grass ([2]; Dose 0.000005, Day 7) | Sum of % necrosis in Rye grass ([2]; Dose 0.000005, Day 10) | Sum of % necrosis in Rye grass ([2]; Dose 0.000005, Day 14) | Sum of % necrosis in Rye grass ([2]; Dose 0.000005, Day 21) | Sum of % necrosis in Rye grass ([2]; Dose 0.00001, Day 0) | Sum of % necrosis in Rye grass ([2]; Dose 0.00001, Day 1) | Sum of % necrosis in Rye grass ([2]; Dose 0.00001, Day 3) | Sum of % necrosis in Rye grass ([2]; Dose 0.00001, Day 7) | Sum of % necrosis in Rye grass ([2]; Dose 0.00001, Day 10) | Sum of % necrosis in Rye grass ([2]; Dose 0.00001, Day 14) | Sum of % necrosis in Rye grass ([2]; Dose 0.00001, Day 21) | Sum of % necrosis in Rye grass ([2]; Dose 0.00005, Day 0) | Sum of % necrosis in Rye grass ([2]; Dose 0.00005, Day 1) | Sum of % necrosis in Rye grass ([2]; Dose 0.00005, Day 3) | Sum of % necrosis in Rye grass ([2]; Dose 0.00005, Day 7) | Sum of % necrosis in Rye grass ([2]; Dose 0.00005, Day 10) | Sum of % necrosis in Rye grass ([2]; Dose 0.00005, Day 14) | Sum of % necrosis in Rye grass ([2]; Dose 0.0001, Day 0) | Sum of % necrosis in Rye grass ([2]; Dose 0.0001, Day 1) | Sum of % necrosis in Rye grass ([2]; Dose 0.0001, Day 3) | Sum of % necrosis in Rye grass ([2]; Dose 0.0001, Day 7) | Sum of % necrosis in Rye grass ([2]; Dose 0.0001, Day 10) | Sum of % necrosis in Rye grass ([2]; Dose 0.0005, Day 0) | Sum of % necrosis in Rye grass ([2]; Dose 0.0005, Day 1) | Sum of % necrosis in Rye grass ([2]; Dose 0.0005, Day 3) | Sum of % necrosis in Rye grass ([2]; Dose 0.0005, Day 7) | Sum of % necrosis in Rye grass ([2]; Dose 0.0005, Day 10) | Sum of % necrosis in Rye grass ([2]; Dose 0.0005, Day 14) | Sum of % necrosis in Rye grass ([2]; Dose 0.0005, Day 21) | Sum of % necrosis in Chinese cabbage ([3]; Dose 0.000001, Day 0) | Sum of % necrosis in Chinese cabbage ([3]; Dose 0.000001, Day 1) | Sum of % necrosis in Chinese cabbage ([3]; Dose 0.000001, Day 3) | Sum of % necrosis in Chinese cabbage ([3]; Dose 0.000001, Day 7) | Sum of % necrosis in Chinese cabbage ([3]; Dose 0.000001, Day 10) | Sum of % necrosis in Chinese cabbage ([3]; Dose 0.000001, Day 14) | Sum of % necrosis in Chinese cabbage ([3]; Dose 0.000001, Day 21) | Sum of % necrosis in Chinese cabbage ([3]; Dose 0.000005, Day 0) | Sum of % necrosis in Chinese cabbage ([3]; Dose 0.000005, Day 1) | Sum of % necrosis in Chinese cabbage ([3]; Dose 0.000005, Day 3) | Sum of % necrosis in Chinese cabbage ([3]; Dose 0.000005, Day 7) | Sum of % necrosis in Chinese cabbage ([3]; Dose 0.00001, Day 0) | Sum of % necrosis in Chinese cabbage ([3]; Dose 0.00001, Day 1) | Sum of % necrosis in Chinese cabbage ([3]; Dose 0.00001, Day 3) | Sum of % necrosis in Chinese cabbage ([3]; Dose 0.00001, Day 7) | Sum of % necrosis in Chinese cabbage ([3]; Dose 0.00005, Day 0) | Sum of % necrosis in Chinese cabbage ([3]; Dose 0.00005, Day 1) | Sum of % necrosis in Chinese cabbage ([3]; Dose 0.00005, Day 3) | Sum of % necrosis in Chinese cabbage ([3]; Dose 0.0001, Day 0) | Sum of % necrosis in Chinese cabbage ([3]; Dose 0.0001, Day 1) | Sum of % necrosis in Chinese cabbage ([3]; Dose 0.0001, Day 3) | Sum of % necrosis in Chinese cabbage ([3]; Dose 0.0005, Day 0) | Sum of % necrosis in Chinese cabbage ([3]; Dose 0.0005, Day 1)
B (50%-80% necrosis): Sum of % necrosis in barley ([1]; Dose 0.00001, Day 21) | Sum of % necrosis in barley ([1]; Dose 0.00005, Day 21) | Sum of % necrosis in Rye grass ([2]; Dose 0.00005, Day 21) | Sum of % necrosis in Chinese cabbage ([3]; Dose 0.00001, Day 10) | Sum of % necrosis in Chinese cabbage ([3]; Dose 0.00005, Day 7) | Sum of % necrosis in Chinese cabbage ([3]; Dose 0.0001, Day 7) | Sum of % necrosis in Chinese cabbage ([3]; Dose 0.0005, Day 3)
